Data from US4200638A, “Indole derivatives and therapeutically acting drugs” (Omnium Chimique Societe Anonyme, priority 1977, dated 1980).

Key:
[1] = Acute toxicity (LD50, method of Lichtfield and Wilcoxon); settings: mouse, in vivo, mice
Description: The compounds of the invention were administered by intragastric or by intravenous route to Charles River stock mice. The lethal doses for 50% (LD50) were determined graphically according to the method of Lichtfield and Wilcoxon (J.Pharmacol.Exp. Therap. […], 96, 99).

Charles River stock mice = assay: Hypobaric anoxia test on mice (survival time); format: in vivo
Description: Charles River stock mice of the same sex, weighting about 20±2 g are shared into three lots of 10 animals each. The lots 1 and 2 comprise treated animals, i.e. those having received either a substance to be tested. The third lot comprises control animals.
The compounds examined are administered p.o. 30 minutes before the experiment.
The animals are placed in an atmosphere improverished in oxygen by creating a partial vacuum (190 mm Hg, corresponding to 5.25% oxygen), in about 30 seconds.
The survival time of the mice is measured with a chronometer. Said time is increased by the agents capable of enhancing oxygenation of tissues and more particularly brain oxygenation.
Under the above described conditions, the dose which provides a 50% increase of the average survival time of the animals may be expressed as the 50% effective dose (here abbreviated as ED50).

femoral flow rate = assay: Femoral flow rate in anesthetized dogs; format: in vivo; settings: 5.5 mg/kg i.v.; dogs anesthetized with sodium pentobarbital (30 mg/kg i.v.)
Description: (§1) In addition, a substantial increase of vertebral flow rate was noticed upon dogs previously anesthetized with sodium pentobarbital (30 mg/kg i.v.). More particularly a does of 5.5 mg/kg i.v. of N-ethylchanodesethylapovincamine causes a 50 to 100% increase of vertebral flow rate. Said effect on the flow rate is selective, the increase of femoral flow rate being negligible.

vertebral flow rate = assay: Vertebral flow rate in anesthetized dogs; format: in vivo; settings: 5.5 mg/kg i.v.
Description: as §1

CCN1CCc2c3n(c4ccccc24)C(C(=O)OC)=CCC31 (stereo not drawn) [N-ethylchanodesethylapovincamine]
LD50 ([1]; iv): 55 mg/kg | LD50 ([1]; po, p.o. (intragastric)): 1120 mg/kg | ED50 (Charles River stock mice; Mus musculus, po, p.o. 30 minutes before the experiment, 190 mm Hg, corresponding to 5.25% oxygen, read-out: ED50 (dose which provides a 50% increase of the average survival time)): 225 mg/kg | LD50/ED50 (Charles River stock mice; p.o.): 5 | increase of femoral flow rate (femoral flow rate): negligible | effect on the flow rate (vertebral versus femoral) (vertebral flow rate): selective
